Reference: patent publication US10906915B2, “Substituted pyrazoloazepin-4-ones and their use as phosphodiesterase inhibitors” (LEO Pharma A/S, priority 2016, dated 2021)
Where two headings read alike, the source gives them in different places.

Target: human PDE4D catalytic domain (UniProt no. Q08499) (Homo sapiens (Human), UniProt Q08499)
Test: PDE4 assay (TR-FRET, FAM-cAMP cleavage)
Assay type: biochemical
Details: read-out: PDE4 IC50 range
Outline: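 PDE4D catalytic domain ([…]) was incubated with unlabelled cAMP plus FAM-cAMP and titrated compound, stopped with binding buffer of metal-ion nanoparticles and Tb donor. AMP generation read by TR-FRET; IC50 as 50% inhibition of cleavage versus controls, reported as nM ranges.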

[1] = human PDE4D catalytic domain, molar concentration giving 50% inhibition of substrate cleavage

Sequence of human PDE4D catalytic domain (Q08499 380-740 limits assumed): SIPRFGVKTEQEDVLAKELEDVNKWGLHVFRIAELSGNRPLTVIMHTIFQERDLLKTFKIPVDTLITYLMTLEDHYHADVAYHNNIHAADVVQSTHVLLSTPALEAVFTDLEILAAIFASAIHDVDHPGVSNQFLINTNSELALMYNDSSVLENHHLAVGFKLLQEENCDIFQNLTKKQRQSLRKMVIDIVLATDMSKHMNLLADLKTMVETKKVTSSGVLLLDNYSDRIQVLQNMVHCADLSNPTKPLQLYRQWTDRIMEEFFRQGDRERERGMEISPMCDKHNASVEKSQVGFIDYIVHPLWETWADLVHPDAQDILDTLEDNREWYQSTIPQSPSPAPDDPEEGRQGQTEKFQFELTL

## CCc1nn(CC(C)(C)COC(=O)c2ccc(F)cc2Cl)c2c1C(=O)NCC1(CCOCC1)C2 [Example 301, [3-(3-ethyl-4-oxo-spiro[6,8-dihydro-5H-pyrazolo[4,3-c]azepine-7,4′-tetrahydropyran]-1-yl)-2,2-dimethyl-propyl] 2-chloro-4-fluoro-benzoate]
  IC50: < 100 nM

## CCc1nn(CC(C)(C)COC(=O)c2ccc(S(=O)(=O)C(C)C)cc2)c2c1C(=O)NCC1(CCOCC1)C2 [Example 317, [3-(3-ethyl-4-oxo-spiro[6,8-dihydro-5H-pyrazolo[4,3-c]azepine-7,4′-tetrahydropyran]-1-yl)-2,2-dimethyl-propyl] 4-isopropylsulfonylbenzoate]
  IC50: < 100 nM

## CCc1nn(CCCOC(=O)c2cc(F)cc(C#N)c2)c2c1C(=O)NCC1(CCOCC1)C2 [Example 53, 3-(3-ethyl-4-oxo-spiro[6,8-dihydro-5H-pyrazolo[4,3-c]azepine-7,4′-tetrahydropyran]-1-yl)propyl 3-cyano-5-fluoro-benzoate]
[1]
  IC50: < 100 nM

## CCc1nn(CCCCOC(=O)c2cccc(S(C)(=O)=O)c2)c2c1C(=O)NCC1(CCOCC1)C2 [Example 369, 4-(3-ethyl-4-oxo-spiro[6,8-dihydro-5H-pyrazolo[4,3-c]azepine-7,4′-tetrahydropyran]-1-yl)butyl 3-methylsulfonylbenzoate]
  IC50: 100 to 500 nM

## CCc1nn(CCCOC(=O)c2ccc(C)c(OC)c2)c2c1C(=O)NCC1(CCOCC1)C2 [Example 59, 3-(3-ethyl-4-oxo-spiro[6,8-dihydro-5H-pyrazolo[4,3-c]azepine-7,4′-tetrahydropyran]-1-yl)propyl 3-methoxy-4-methyl-benzoate]
[1]
  IC50: < 100 nM

## CCc1nn(CC2(COC(=O)c3cccc(OC)c3)COC2)c2c1C(=O)NCC1(CCOCC1)C2 [Example 360, [3-[(3-ethyl-4-oxo-spiro[6,8-dihydro-5H-pyrazolo[4,3-c]azepine-7,4′-tetrahydropyran]-1-yl)methyl]oxetan-3-yl]methyl 3-methoxybenzoate]
  IC50: < 100 nM

## CCc1nn(C[C@@H](C)COC(=O)c2cccc(OC)c2)c2c1C(=O)NCC1(CCOCC1)C2 [Example 171, [(2R)-3-(3-ethyl-4-oxo-spiro[6,8-dihydro-5H-pyrazolo[4,3-c]azepine-7,4′-tetrahydropyran]-1-yl)-2-methyl-propyl] 3-methoxybenzoate]
[1]
  IC50: < 100 nM

## CCc1nn(CC(C)(C)COC(=O)c2cccc(C(=O)N3CCCC3)c2)c2c1C(=O)NCC1(CCOCC1)C2 [Example 344, [3-(3-ethyl-4-oxo-Spiro[6,8-dihydro-5H-pyrazolo[4,3-c]azepine-7,4′-tetrahydropyran]-1-yl)-2,2-dimethyl-propyl] 3-(pyrrolidine-1-carbonyl)benzoate]
  IC50: < 100 nM

## CCc1nn(CCCCOC(=O)c2ccc(C)cc2)c2c1C(=O)NCC1(CCOCC1)C2 [Example 365, 4-(3-ethyl-4-oxo-spiro[6,8-dihydro-5H-pyrazolo[4,3-c]azepine-7,4′-tetrahydropyran]-1-yl)butyl 4-methylbenzoate]
  IC50: < 100 nM

## CCNC(=O)c1ccc(C(=O)OCCCn2nc(CC)c3c2CC2(CCOCC2)CNC3=O)cc1 [Example 142, 3-(3-ethyl-4-oxo-spiro[6,8-dihydro-5H-pyrazolo[4,3-c]azepine-7,4′-tetrahydropyran]-1-yl)propyl 4-(ethylcarbamoyl)benzoate]
[1]
  IC50: < 100 nM

## CCc1nn(CCCOC(C)=O)c2c1C(=O)NCC1(CCOCC1)C2 [Example 6, 3-(3-ethyl-4-oxo-spiro[6,8-dihydro-5H-pyrazolo[4,3-c]azepine-7,4′-tetrahydropyran]-1-yl)propyl acetate]
[1]
  IC50: 100 to 500 nM

## CCc1nn(C[C@@H](C)COC(=O)c2ccc(Cl)cc2C)c2c1C(=O)NCC1(CCOCC1)C2 [Example 196, [(2R)-3-(3-ethyl-4-oxo-spiro[6,8-dihydro-5H-pyrazolo[4,3-c]azepine-7,4′-tetrahydropyran]-1-yl)-2-methyl-propyl] 4-chloro-2-methyl-benzoate]
[1]
  IC50: < 100 nM

## CCc1nn(CCCOC(=O)c2cccc(C(=O)NC(C)C)c2)c2c1C(=O)NCC1(CCOCC1)C2 [Example 154, 3-(3-ethyl-4-oxo-spiro[6,8-dihydro-5H-pyrazolo[4,3-c]azepine-7,4′-tetrahydropyran]-1-yl)propyl 3-(isopropylcarbamoyl)-benzoate]
[1]
  IC50: < 100 nM

## CCNC(=O)c1ccc(C(=O)OCC(C)(C)Cn2nc(CC)c3c2CC2(CCOCC2)CNC3=O)cc1 [Example 330, [3-(3-ethyl-4-oxo-Spiro[6,8-dihydro-5H-pyrazolo[4,3-c]azepine-7,4′-tetrahydropyran]-1-yl)-2,2-dimethyl-propyl] 4-(ethylcarbamoyl)benzoate]
  IC50: < 100 nM

## CCc1nn(CCCCOC(=O)c2ccccc2)c2c1C(=O)NCC1(CCOCC1)C2 [Example 363, 4-(3-ethyl-4-oxo-spiro[6,8-dihydro-5H-pyrazolo[4,3-c]azepine-7,4′-tetrahydropyran]-1-yl)butyl benzoate]
  IC50: < 100 nM

## CCc1nn(C[C@@H](C)COC(=O)c2ccc(Cl)c(C(F)(F)F)c2)c2c1C(=O)NCC1(CCOCC1)C2 [Example 238, [(2R)-3-(3-ethyl-4-oxo-spiro[6,8-dihydro-5H-pyrazolo[4,3-c]azepine-7,4′-tetrahydropyran]-1-yl)-2-methyl-propyl] 4-chloro-3-(trifluoromethyl)benzoate]
[1]
  IC50: < 100 nM

## CCc1nn(CCCCOC(=O)c2ccc(S(=O)(=O)C3CCCC3)cc2)c2c1C(=O)NCC1(CCOCC1)C2 [Example 376, 4-(3-ethyl-4-oxo-spiro[6,8-dihydro-5H-pyrazolo[4,3-c]azepine-7,4′-tetrahydropyran]-1-yl)butyl 4-cyclopentylsulfonylbenzoate]
  IC50: 100 to 500 nM

## CCc1nn(C[C@@H](C)COC(=O)c2cc(F)ccc2C)c2c1C(=O)NCC1(CCOCC1)C2 [Example 173, [(2R)-3-(3-ethyl-4-oxo-spiro[6,8-dihydro-5H-pyrazolo[4,3-c]azepine-7,4′-tetrahydropyran]-1-yl)-2-methyl-propyl] 5-fluoro-2-methyl-benzoate]
[1]
  IC50: < 100 nM

## CCc1nn(C[C@@H](C)COC(=O)c2ccc(C(=O)N3CCNCC3)cc2)c2c1C(=O)NCC1(CCOCC1)C2 [Example 259, [(2R)-3-(3-ethyl-4-oxo-spiro[6,8-dihydro-5H-pyrazolo[4,3-c]azepine-7,4′-tetrahydropyran]-1-yl)-2-methyl-propyl] 4-(piperazine-1-carbonyl)benzoate]
[1]
  IC50: < 100 nM

## CCc1nn(CCCOC(=O)c2ccc(OC)cc2Cl)c2c1C(=O)NCC1(CCOCC1)C2 [Example 89, 3-(3-ethyl-4-oxo-spiro[6,8-dihydro-5H-pyrazolo[4,3-c]azepine-7,4′-tetrahydropyran]-1-yl)propyl 2-chloro-4-methoxy-benzoate]
[1]
  IC50: < 100 nM

## CCc1nn(CCCOC(=O)c2cc(F)ccc2C)c2c1C(=O)NCC1(CCOCC1)C2 [Example 34, 3-(3-ethyl-4-oxo-spiro[6,8-dihydro-5H-pyrazolo[4,3-c]azepine-7,4′-tetrahydropyran]-1-yl)propyl 5-fluoro-2-methyl-benzoate]
[1]
  IC50: < 100 nM

## CCc1nn(CC2(COC(=O)c3ccccc3)COC2)c2c1C(=O)NCC1(CCOCC1)C2 [Example 356, [3-[(3-ethyl-4-oxo-spiro[6,8-dihydro-5H-pyrazolo[4,3-c]azepine-7,4′-tetrahydropyran]-1-yl)methyl]oxetan-3-yl]methyl benzoate]
  IC50: < 100 nM
